The source of these data is PubChem BioAssay (NCI).

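Interpolation was linear, between the two tested concentrations surrounding the appropriate level; five concentrations were tested over 48 hours in 96-well plates. GI50 is the concentration that inhibits growth by half. At the TGI there is no net growth.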

Among the test systems are CAKI-1 renal; DU-145 prostate; OVCAR-3 ovarian; MDA-MB-231 breast; UO-31 renal; SK-OV-3 ovarian; SR leukemia; OVCAR-5 ovarian; MDA-MB-435; HOP-92 NSCLC; SNB-75 CNS.
Common to all, as to assay: NCI tumour cell line growth inhibition, 48 h

Regarding `N=C(N)c1ccc(-c2ccc(-c3ccc(Cl)cc3Cl)o2)nc1`, the GI50 with CAKI-1 renal was 1520 nM; in the assay on DU-145 prostate it was 1780 nM; in the assay on OVCAR-3 ovarian, 1810 nM; in the assay with MDA-MB-231 breast it was 1640 nM; with UO-31 renal, 1560 nM; in the assay with SK-OV-3 ovarian, 1770 nM. In addition, the GI50 is 311 nM in the assay on SR leukemia; 1640 nM in the assay on OVCAR-5 ovarian; 1720 nM in the assay on MDA-MB-435; 1440 nM in the assay on HOP-92 NSCLC; 1460 nM with SNB-75 CNS. For the same molecule, the TGI is 2960 nM with CAKI-1 renal; 3210 nM with DU-145 prostate; 3230 nM in the assay with OVCAR-3 ovarian; 3160 nM in the assay on MDA-MB-231 breast; 2920 nM in the assay with UO-31 renal; 3520 nM with SK-OV-3 ovarian. In addition, the TGI in the assay on SR leukemia turned out to be 1430 nM; in the assay with OVCAR-5 ovarian it was 3050 nM; in the assay on MDA-MB-435, 3100 nM; in the assay with HOP-92 NSCLC, 2900 nM; in the assay on SNB-75 CNS, 2780 nM.
